Results reported in US11986482B2, “Method of promoting antitumor or anti-cancer immunity” (City University of Hong Kong, priority 2021, dated 2024).
Entries after “also recorded” stand apart in the source; their conditions may differ.

Legend:
4T1 primary tumors = experiment: Chemokine levels in microenvironment of 4T1 primary tumors; type: in vivo, mouse; settings: 4T1 tumors isolated at end of experiment
Protocol: Inventors further measure the chemokines or cytokines in these primary tumor tissues. The tumors are isolated at the end of experiments, and the chemokine levels in the microenvironment of 4T1 primary tumors treated with the vehicle or 6J1 are determined by Flow cytometry-based quantification. In FIGS. 9a-9c, data are reported in μg/ml, standardized to the excised tumor weight (in grams); each dot represents one mouse.

4T1 cells [1] = experiment: Extracellular vesicle concentration, Nanosight nanoparticle analyzer, 4T1 cells; type: cell-based, mouse; settings: 1 μM
Protocol: The current PD-L1 and PD1 therapies apply PD-L1 or PD1 monoclonal antibodies to block the PD-L1/PD1 signaling, which results in cytotoxic T cells recognizing and killing the tumor cells. […] First, flow cytometry-based quantification of plasma membrane levels of PD-L1 in 4T1 cells treated with or without 6J1 (1 μM) for 24 h. 4T1 cells are treated with or without 6J1 (1 μM) for 24 h. The supernatant is collected, and the concentration of extracellular vesicle is determined using a Nanosight nanoparticle analyzer in FIG. 8b. The exosomes are also collected and subjected to western blot analysis of the EVs marker and PD-L1 in FIG. 8c.
To assess whether the in vivo antitumor growth effect of 6J1 is related to its effect on PD-L1 in 4T1 cells, inventors knock out PD-L1 via CRISPR/Cas9 in 4T1 cells (FIG. 10a). 4T1-NC or 4T1-PD-L1 knockout cells are treated with or without 6J1 (1 μM) for 24 h. The supernatant is collected, and the concentration of extracellular vesicle is determined using a Nanosight nanoparticle analyzer. The exosomes are also collected and subjected to western blot analysis of the EVs marker and PD-L1. […] Inventors then transplant control or PD-L1-knockout 4T1 cells into the fat pad of syngeneic female Balb/c mice. The mice are randomly divided (n=5 per group) and treated with either buffer or 6J1 (30 mg/kg, daily) via oral gavage.
Therefore, it is possible that the increased exosomal PD-L1 secretion induced by 6J1 may still suppress the tumor-infiltrating T cell cytotoxicity in vivo, even though 6J1 reduces the cell surface expression level of PD-L1 on the tumor cells. To evaluate the role of exosomal PD-L1 in the tumor microenvironment and tumor progression in mice, inventors knock out Rab27a in 4T1 cells to inhibit the secretion of exosomes. 4T1-shNC or 4T1-shRab27A cells are treated with or without 6J1 (1 μM). The supernatant is collected, and the concentration of extracellular vesicle is determined using a Nanosight nanoparticle analyzer. […] Inventors analyze the plasma membrane levels of PD-L1 in 4T1-shNC or 4T1-shRab27A cells treated with or without 6J1 (1 μM). […]

HeLa cells = experiment: Extracellular vesicle concentration, Nanosight nanoparticle analyzer, HeLa cells; type: cell-based; settings: 1 μM, 24 h
Protocol: It has previously been shown that interfering with endosomal trafficking promotes exosome secretion. Moreover, PD-L1 has been reported to be enriched in exosomes and secreted outside the cell. Thus, inventors speculate that 6J1 may induce the secretion of the PD-L1 trapped in the endosomal compartments via exosomes. To determine whether 6J1 may induce the secretion of PD-L1 via exosomes, HeLa cells are treated with or without 6J1 (1 μM) for 24 h. The supernatant is collected. Inventors purify the exosomes from the supernatant of HeLa cells by sequential centrifugation. The concentration of extracellular vesicle is determined using a Nanosight nanoparticle analyzer. And HeLa cells are treated with or without 6J1 (1 μM) for 48 h. The cell and supernatant are collected for Western Blot analysis. […] Moreover, the activity of Rab27a in HeLa cells treated with or without 6J1 (1 μM) is examined with a GST-SHD pulldown assay.
Moreover, ATG5- or LC3-knockout HeLa cells are treated with or without 6J1 (1 μM) for 24 h. The supernatant is collected, and the concentration of the extracellular vesicle is determined using a Nanosight nanoparticle analyzer. The exosomes are also collected and subjected to western blot analysis of the EVs marker and PD-L1 in FIG. 7a. The live cells are also labeled with an anti-PD-L1 antibody in FIG. 7b and subjected to flow cytometry analysis in FIG. 7c. […] In addition, inventors assess whether other autophagy-related genes, e.g., ATG4B, ATG7, Beclin1, and Vps34 are involved in 6J1-mediated exosomal PD-L1 secretion. ATG4B-, ATG7-, Beclin1-, or VPS34-knockout HeLa cells are treated with or without 6J1 (1 μM) for 24 h. The supernatant is collected, and the concentration of extracellular vesicle is determined using a Nanosight nanoparticle analyzer. The exosomes are also collected and subjected to western blot analysis of the EVs marker and PD-L1 in FIG. 7d. The live cells are also labeled with an anti-PD-L1 antibody and subjected to flow cytometry analysis in FIG. 7e.

4T1 cells [2] = experiment: Cell viability of 4T1 cells, MTT assay; type: cell-based; settings: ≤1 μM, 24 h or 48 h
Protocol: The inventors also test the cytotoxicity of 6J1 in several cancer cell lines, HeLa, A549 and MDA-MB-231 cell lines. Cells are grown in 96-well plates in triplicate and treated with or without 6J1 at the concentrations of 0, 0.01, 0.1, 1, 10 and 100 μM indicated for 24 h or 48 h. They are then stained with propidium iodide (PI) or Hochest 33342 to measure the cell death ratio and cell number, respectively. […] Inventors also test the cytotoxicity of 6J1 in 4T1 cells. 4T1 cells are plated in 96-well plates in triplicate and treated with or without 6J1 at the concentrations of 0, 0.01, 0.1, 1, 5, 10, 20, 40, 80 and 100 μM indicated for 24 h or 48 h. The cell viability was then quantified via the MTT assay.

## OCCOCCN(c1ccccc1)c1nc(N/N=C/c2cccc(I)c2)nc(N2CCOCC2)n1 [Compound 6J1]
4T1 primary tumors
  secretion of chemokines CCL2, CCL3, CCL4, CXCL9 in tumor microenvironment: significantly increases the secretion of some chemokines
  secretion of chemokines CCL5, CCL11, CCL17, CCL22, CXCL1, CXCL5, CXCL10, CXCL13 in tumor microenvironment: little or only subtle effects on others; also recorded: little or only subtly effects on others
4T1 cells [1]; 4T1-shRab27A cells
  6J1-induced EVs secretion: significantly inhibits 6J1-induced EVs secretion
4T1 cells [1]; PD-L1-knockout 4T1 cells, 24 h
  6J1-induced EVs secretion: does not affect 6J1-induced EVs secretion
HeLa cells; ATG4B-, ATG7-, Beclin1- or VPS34-knockout HeLa cells
  6J1-induced EVs secretion: fails to abolish
HeLa cells; ATG5- or LC3B-knockout HeLa cells
  6J1-induced EVs secretion: Neither ATG5 nor LC3B knockout impairs
HeLa cells; HeLa cells
  exosome secretion (extracellular vesicle concentration): dramatically induces exosome secretion
4T1 cells [2]
  proliferation of 4T1 cells: little effect
